Where two headings read alike, the source gives them in different places.
Columns and labels:
[1] = test system: NMNAT1 or alcohol dehydrogenase; assay: Counter screen with NMN in place of NAM; format: biochemical; conditions: role: inhibitor; 50 μM NMN substituted for NAM
Description: NAMPT activity was measured using a coupled-enzyme assay previously described [Revollo, 2014]. Briefly, reactions consisting of 50 mM Tris pH 8, 0.4 mM PRPP, 2.5 mM ATP, 12 mM MgCl2, 0.02% BSA, 1 μM NAMPT, 77 nM NMNAT1, 10 mM semicarbazide, 30 μg/ml alcohol dehydrogenase were set up in a 384-well plate (50 μl/well). […] The reactions were started by addition of 50 μM NAM. Fluorescence due to NADH formation by alcohol dehydrogenase was measured in a BioTek Cytation 5 plate reader (Agilent, USA) set up for excitation at λ=340 nm and detection of emission at λ=460 nm. To counter screen for NMNAT1 or alcohol dehydrogenase inhibition, the assay was set up above but substituting 50 μM NMN (substrate for NMNAT1) for NAM. No inhibition of was observed under these conditions.

[2] = Mouse pharmacokinetics in plasma and brain; format: in vivo, CD1 mice; conditions: for Kp / Cmax: mouse; for Kp: read-out: brain to blood exposure (AUCBrain/AUCplasma)
Description: GBM, which is reported to be a potential target for these compounds, is an intracranial tumor, and thus, effective drugs must cross the blood-brain barrier. Therefore, in addition to plasma, we analyzed compound and metabolite levels in mouse brain. Following the administration of a single 5 mg/kg intravenous (IV) injection of either 1 or 9, we quantified the levels of each compound in both plasma and brain. […] The brain to blood exposure, represented by the ratio of the area under the curve between brain and plasma (AUCBrain/AUCplasma), was 3.45 for 1 and 2.85 for 9.
Next, we analyzed the levels of metabolites that result from the metabolism of 1 and 9 through the NAD salvage pathway.
MS conditions were identical. The HPLC conditions were as follows: Solvent A: water including 0.1% formic acid (LC-MS) grade. Solvent B: Acetonitrile including %0.1 formic acid (LC-MS) grade. Gradient condition was 0-3 min: 3% B, 17 min: 60.5% B, 17.1 min Flow to 0.25 mL/min, 17 to 20 min hold 95% B: 20.5-25 min hold 3% B, 24.5 flow to 0.2 mL/min. Total run time: 25 mins.
Data analysis for TOF data was performed using SCIEX MultiQuant software version 3.0.3. For each of the compounds monitored, the theoretical exact m/z was calculated. A range of ±10 ppm was extracted around the theoretical mass and used to create an analytical method in MultiQuant. Extracted areas for parent compounds 1 and 9 in S462 cells and mice were normalized to the internal standard tolbutamide, while parent compounds 1 and 9 in cell-free reactions and all metabolite levels were presented as peak areas without normalization.
Six week old female CD1 mice (Charles River, Wilmington, MA) were dosed with 5 mg/kg 1 or 9 formulated as 5% DMSO/10% PEG400/85% D5W (5% dextrose in water, pH 7.4) in a volume of 0.2 ml/mouse. Animals were euthanized by inhalation overdose of CO2 at various points postdose. Blood was collected by cardiac puncture into K2EDTA tubes and kept on ice until they were spun at 9600×g for 10 min at 4 °C for plasma. Brains were harvested, rinsed briefly with PBS to remove surface adhering blood, weighed and then snap frozen in liquid nitrogen before storing along with plasma at −80 °C until processing. Brains were homogenized in a volume of PBS equal to 3× their weight in g. One hundred microliters of plasma or brain homogenate was mixed with […] of methanol containing 0.15% formic acid and 37.5 ng/ml tolbutamide internal standard. Samples were vortexed for 15 seconds, incubated at RT for 10 min and then spun at 16,100×g. The resulting supernatant was spun a second time and then filtered through 0.2 μm PVDF filters and analyzed by LC-MS. Samples were quantitated in comparison to a standard curve prepared by spiking 1 or 9 into blank plasma or brain homogenate. The limit of quantitation was set as the lowest point on the standard curve that upon back-calculation was within 20% of the nominal value and was at least three-fold above the average peak area observed for blank plasma or brain. The LOQ for 1 was 1 ng/ml in plasma and 5 ng/ml in brain. The LOQ for 9 was 5 ng/ml in plasma and 10 ng/ml for brain homogenate. Brain concentrations were adjusted to ng/g wet tissue weight and then an estimate was made of drug in brain vasculature using the measured plasma concentration and subtracted from the measured brain concentration.^30 Pharmacokinetic parameters were calculated using the noncompartmental analysis tool with sparse sampling in Phoenix WinNonlin (Certara Corp, Princeton, NJ).

[3] = brain, 5 mg/kg IV single dose, read-out: brain Cmax
[4] = brain, 5 mg/kg IV, assuming brain density of 1 g/ml, read-out: brain Cmax
[5] = plasma, 5 mg/kg IV single dose, molar, read-out: plasma maximum concentration (Cmax)
[6] = plasma, 5 mg/kg IV single dose, read-out: plasma maximum concentration (Cmax)

inhibition in counter screen [1]	brain penetration ([2]; 5 mg/kg IV)	Kp ([2]; brain, 5 mg/kg IV)	Cmax [2, 3] [ng/g]	Cmax [2, 4] [µM]	Cmax [2, 5] [µM]	Cmax [2, 6] [ng/mL]	rapidly cleared from plasma by ([2]; plasma, 5 mg/kg IV) [min]	SMILES	persistence in brain versus plasma ([2]; 5 mg/kg IV)
No inhibition	brain-penetrant	2.85	1600	7.8	23.7	4830	≤ 90	O=C(Nc1cccs1)c1cccnc1 [Compound 9, N-(Thiophen-2-yl)nicotinamide]	persisted longer in the brain than in the plasma
No inhibition	brain-penetrant	3.45	2220	10.8	5.65	1160	≤ 90	O=C(Nc1cccnc1)c1cccs1 [Compound 1, N-(pyridin-3-yl)thiophene-2-carboxamide]	persisted longer in the brain than in the plasma

From US20260356803A1, “Nicotinamide derivatives” (Board of Regents, The University of Texas System, priority 2024, published 2026)
